Consider 25 compounds from US20260374756A1, “HETEROCYCLIC COMPOUNDS AS INHIBITORS OF MONOACYLGLYCEROL LIPASE (MAGL)” (Hoffmann-La Roche Inc., priority 2022, published 2026).

Molecules are shown by their SMILES.

The assay deals with T1, hMAGL (Homo sapiens, UniProt Q99685).
T1 sequence (Q99685 1-303): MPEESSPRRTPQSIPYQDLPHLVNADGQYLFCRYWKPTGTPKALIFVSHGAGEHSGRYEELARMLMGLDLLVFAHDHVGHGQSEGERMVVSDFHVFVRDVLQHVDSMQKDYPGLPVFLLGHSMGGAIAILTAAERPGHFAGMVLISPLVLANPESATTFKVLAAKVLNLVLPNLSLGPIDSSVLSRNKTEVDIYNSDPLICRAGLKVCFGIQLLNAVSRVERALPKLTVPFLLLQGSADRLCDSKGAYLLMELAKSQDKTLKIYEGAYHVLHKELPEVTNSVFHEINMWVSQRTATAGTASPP
Nature of the assay: 2-AG assay: MAGL inhibition, hydrolysis of 2-arachidonoylglycerol to arachidonic acid followed by mass spectrometry. In kind it is biochemical. An outline of the steps: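 Read-out is LC-MS/MS of arachidonic acid released from 2-arachidonoylglycerol (8 μM final), normalised to d8-arachidonic acid internal standard after acetonitrile quench. Enzyme […] and compound were pre-mixed 15 min, then reacted 30 min, both at RT, in Tris/EDTA buffer with 0.01% Tween-20 and 2.5% DMSO.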

For orientation: IC50 means the concentration at which inhibition is half-maximal. Read a high IC50 as weaker potency. Compound `Cn1nc(C(F)(F)F)cc1CN1CC2(C1)CN(C(=O)N1CC3(CC(n4cnc(C5CC5)n4)C3)C1)C2` [Example 167, [6-(3-cyclopropyl-1,2,4-triazol-1-yl)-2-azaspiro[3.3]heptan-2-yl]-[6-[[2-methyl-5-(trifluoromethyl)pyrazol-3-yl]methyl]-2,6-diazaspiro[3.3]heptan-2-yl]methanone] returned an IC50 of 5.6 nM. In turn, `O=C(N1CC2(CC(Cn3ccnc3C(F)(F)F)C2)C1)N1CC2(CC(c3cc(C4CC4)n[nH]3)C2)C1` [Example 145, [6-(3-cyclopropyl-1H-pyrazol-5-yl)-2-azaspiro[3.3]heptan-2-yl]-[6-[[2-(trifluoromethyl)imidazol-1-yl]methyl]-2-azaspiro[3.3]heptan-2-yl]methanone] came in with an IC50 of 0.4 nM. To `O=C(N1CC2(CC(n3cnc(C4CC4)n3)C2)C1)N1CC2(CN(Cc3cc(C(F)(F)F)[nH]n3)C2)C1` [Example 242, [6-(3-cyclopropyl-1,2,4-triazol-1-yl)-2-azaspiro[3.3]heptan-2-yl]-[6-[[5-(trifluoromethyl)-1H-pyrazol-3-yl]methyl]-2,6-diazaspiro[3.3]heptan-2-yl]methanone] belongs 3.73 nM; to `O=C(N1CC2(CC(n3cnc(C4(O)CC4)n3)C2)C1)N1CC2(CN(Cc3nc(C4CC4)cs3)C2)C1` [Example 240, [6-[(4-cyclopropylthiazol-2-yl)methyl]-2,6-diazaspiro[3.3]heptan-2-yl]-[6-[3-(1-hydroxycyclopropyl)-1,2,4-triazol-1-yl]-2-azaspiro[3.3]heptan-2-yl]methanone], 232 nM; to `O=C(N1CC2(CC(n3cnc(C(F)(F)F)n3)C2)C1)N1CC2(CN(Cc3ccnn3C(F)(F)F)C2)C1` [Example 225, [6-[[2-(trifluoromethyl)pyrazol-3-yl]methyl]-2,6-diazaspiro[3.3]heptan-2-yl]-[6-[3-(trifluoromethyl)-1,2,4-triazol-1-yl]-2-azaspiro[3.3]heptan-2-yl]methanone], 146 nM. Turning to `O=C(N1CC2(CC(Cc3ncn(CC(F)(F)F)n3)C2)C1)N1CC2(CC(n3cnc(C4(O)CC4)n3)C2)C1` [Example 203, [6-[3-(1-hydroxycyclopropyl)-1,2,4-triazol-1-yl]-2-azaspiro[3.3]heptan-2-yl]-[6-[[1-(2,2,2-trifluoroethyl)-1,2,4-triazol-3-yl]methyl]-2-azaspiro[3.3]heptan-2-yl]methanone], 135 nM corresponded to half-maximal inhibition (IC50). `O=C(N1CC2(CC(n3cnc(C(F)(F)F)n3)C2)C1)N1CC2(CN(Cc3cnn(CC(F)(F)F)n3)C2)C1` [Example 195, [6-[[2-(2,2,2-trifluoroethyl)triazol-4-yl]methyl]-2,6-diazaspiro[3.3]heptan-2-yl]-[6-[3-(trifluoromethyl)-1,2,4-triazol-1-yl]-2-azaspiro[3.3]heptan-2-yl]methanone] had an IC50 of 439 nM. In the case of `O=C(N1CC2(CC(n3cnc(C4CC4)n3)C2)C1)N1CC2(CN(Cc3ccn(CCC(F)(F)F)n3)C2)C1` [Example 321, [6-(3-cyclopropyl-1,2,4-triazol-1-yl)-2-azaspiro[3.3]heptan-2-yl]-[6-[[1-(3,3,3-trifluoropropyl)pyrazol-3-yl]methyl]-2,6-diazaspiro[3.3]heptan-2-yl]methanone], the midpoint of inhibition, the IC50, lay at 49.1 nM. To `O=C(N1CC2(CC(Cc3ncn(CC(F)(F)F)n3)C2)C1)N1CC2(CC(n3cnc(C(F)(F)F)n3)C2)C1` [Example 331, [6-[[1-(2,2,2-trifluoroethyl)-1,2,4-triazol-3-yl]methyl]-2-azaspiro[3.3]heptan-2-yl]-[6-[3-(trifluoromethyl)-1,2,4-triazol-1-yl]-2-azaspiro[3.3]heptan-2-yl]methanone] belongs 11.8 nM; to `O=C(N1CC2(CC(n3cnc(C4CC4)n3)C2)C1)N1CC2(CN(Cc3nc(CC4CC4)no3)C2)C1` [Example 265, [6-[[3-(cyclopropylmethyl)-1,2,4-oxadiazol-5-yl]methyl]-2,6-diazaspiro[3.3]heptan-2-yl]-[6-(3-cyclopropyl-1,2,4-triazol-1-yl)-2-azaspiro[3.3]heptan-2-yl]methanone], 9.94 nM. To `O=C(N1CC2(CC(n3cnc(C4CC4)n3)C2)C1)N1CC2(CN(Cc3snnc3C3CC3)C2)C1` [Example 90, [6-[(4-cyclopropylthiadiazol-5-yl)methyl]-2,6-diazaspiro[3.3]heptan-2-yl]-[6-(3-cyclopropyl-1,2,4-triazol-1-yl)-2-azaspiro[3.3]heptan-2-yl]methanone] belongs 223 nM; to `O=C(N1CC2(CC(n3cnc(C4CC4)n3)C2)C1)N1CC2(CN(Cc3nc(C(F)(F)F)no3)C2)C1` [Example 173, [6-(3-cyclopropyl-1,2,4-triazol-1-yl)-2-azaspiro[3.3]heptan-2-yl]-[6-[[3-(trifluoromethyl)-1,2,4-oxadiazol-5-yl]methyl]-2,6-diazaspiro[3.3]heptan-2-yl]methanone], 11.9 nM. `O=C(N1CC2(CC(n3cnc(C4(O)CC4)n3)C2)C1)N1CC2(CN(Cc3cc(C(F)(F)F)sn3)C2)C1` [Example 155, [6-[3-(1-hydroxycyclopropyl)-1,2,4-triazol-1-yl]-2-azaspiro[3.3]heptan-2-yl]-[6-[[5-(trifluoromethyl)isothiazol-3-yl]methyl]-2,6-diazaspiro[3.3]heptan-2-yl]methanone] returned an IC50 of 86.8 nM. In the case of `O=C(N1CC2(CC(n3cnc(C(F)(F)F)n3)C2)C1)N1CC2(CN(Cc3ncoc3C(F)(F)F)C2)C1` [Example 220], inhibition was half-maximal at 178 nM (IC50). As to `O=C(N1CC2(CC(n3cnc(C4CC4)n3)C2)C1)N1CC2(CN(Cc3coc(C(F)(F)F)n3)C2)C1` [Example 214, [6-(3-cyclopropyl-1,2,4-triazol-1-yl)-2-azaspiro[3.3]heptan-2-yl]-[6-[[2-(trifluoromethyl)oxazol-4-yl]methyl]-2,6-diazaspiro[3.3]heptan-2-yl]methanone], half-maximal inhibition (IC50) was put at 28.5 nM. In the case of `O=C(N1CC2(CC(n3cnc(C4CC4)n3)C2)C1)N1CC2(CN(Cc3ncc(C(F)(F)F)[nH]3)C2)C1` [Example 232, [6-(3-cyclopropyl-1,2,4-triazol-1-yl)-2-azaspiro[3.3]heptan-2-yl]-[6-[[5-(trifluoromethyl)-1H-imidazol-2-yl]methyl]-2,6-diazaspiro[3.3]heptan-2-yl]methanone], half-maximal inhibition (IC50) required 79.8 nM.

As for `O=C(N1CC2(CC(n3cnc(C(F)(F)F)n3)C2)C1)N1CC2(CN(Cc3snnc3C3CCC3)C2)C1` [Example 76, [6-[(4-cyclobutylthiadiazol-5-yl)methyl]-2,6-diazaspiro[3.3]heptan-2-yl]-[6-[3-(trifluoromethyl)-1,2,4-triazol-1-yl]-2-azaspiro[3.3]heptan-2-yl]methanone], the midpoint of inhibition, the IC50, lay at 5.73 nM. The result for `O=C(N1CC2(CC(n3cnc(C4CC4)n3)C2)C1)N1CC2(CN(Cc3ccnn3CC(F)(F)F)C2)C1` [Example 223, [6-(3-cyclopropyl-1,2,4-triazol-1-yl)-2-azaspiro[3.3]heptan-2-yl]-[6-[[2-(2,2,2-trifluoroethyl)pyrazol-3-yl]methyl]-2,6-diazaspiro[3.3]heptan-2-yl]methanone] reads 69.2 nM. The result for `O=C(N1CC2(CC(n3cnc(C(F)(F)F)n3)C2)C1)N1CC2(CN(Cc3ncc(C(F)F)s3)C2)C1` [Example 187, [6-[[5-(difluoromethyl)thiazol-2-yl]methyl]-2,6-diazaspiro[3.3]heptan-2-yl]-[6-[3-(trifluoromethyl)-1,2,4-triazol-1-yl]-2-azaspiro[3.3]heptan-2-yl]methanone] reads 15.3 nM; that for `O=C(N1CC2(CCN(Cc3ncc(C(F)F)s3)CC2)C1)N1CC2(CC(n3cnc(C4CC4)n3)C2)C1` [Example 32], 2.86 nM; that for `Cn1ncc(C(F)(F)F)c1CN1CC2(C1)CN(C(=O)N1CC3(CC(n4cnc(C(F)(F)F)n4)C3)C1)C2` [Example 158, [6-[[2-methyl-4-(trifluoromethyl)pyrazol-3-yl]methyl]-2,6-diazaspiro[3.3]heptan-2-yl]-[6-[3-(trifluoromethyl)-1,2,4-triazol-1-yl]-2-azaspiro[3.3]heptan-2-yl]methanone], 9.26 nM.

As for `O=C(N1CC2(CC(n3cnc(C4CC4)n3)C2)C1)N1CC2(CN(Cc3cc(C(F)(F)F)on3)C2)C1` [Example 190, [6-(3-cyclopropyl-1,2,4-triazol-1-yl)-2-azaspiro[3.3]heptan-2-yl]-[6-[[5-(trifluoromethyl)isoxazol-3-yl]methyl]-2,6-diazaspiro[3.3]heptan-2-yl]methanone], the IC50 was found to be 7.53 nM. The result for `Cc1cc(C(F)(F)F)nn1CC1CC2(C1)CN(C(=O)N1CC3(CC(n4cnc(C5CC5)n4)C3)C1)C2` [Example 69, [6-(3-cyclopropyl-1,2,4-triazol-1-yl)-2-azaspiro[3.3]heptan-2-yl]-[6-[[5-methyl-3-(trifluoromethyl)pyrazol-1-yl]methyl]-2-azaspiro[3.3]heptan-2-yl]methanone] reads 4.09 nM; that for `O=C(N1CC2(CC(Cc3nc(C(F)(F)F)cs3)C2)C1)N1CC2(CC(n3cnc(C4(O)CC4)n3)C2)C1` [Example 106, [6-[3-(1-hydroxycyclopropyl)-1,2,4-triazol-1-yl]-2-azaspiro[3.3]heptan-2-yl]-[6-[[4-(trifluoromethyl)thiazol-2-yl]methyl]-2-azaspiro[3.3]heptan-2-yl]methanone], 8.94 nM. To `O=C(N1CC2(CCN(Cc3cc(C(F)(F)F)on3)CC2)C1)N1CC2(CC(n3cnc(C(F)(F)F)n3)C2)C1` [Example 79, [7-[[5-(trifluoromethyl)isoxazol-3-yl]methyl]-2,7-diazaspiro[3.5]nonan-2-yl]-[6-[3-(trifluoromethyl)-1,2,4-triazol-1-yl]-2-azaspiro[3.3]heptan-2-yl]methanone] belongs 71.4 nM.
